According to patent US20050282743A1, “Molecular interactions in cells” (Arbor Vita Corporation, priority 2001, published 2005):
Ends that are not written are not given here. Peptide text beside a SMILES is read from it. * marks the point of attachment. Biotin = O=C1N[C@H]2[C@H](CS[C@H]2CCCCC(=O)*)N1

Key:
Test in all cases: G' assay (10 uM PL peptide), results of TABLE 7 and TABLE 12
Format in all cases: binding
[1] = molecular target: T1, PDZ protein (GST-PDZ fusion) (Homo sapiens, UniProt Q9NZN5); details: PDZ KIAA0382, PDZ Domain 1
T1 construct: made in house; host or cells: E. coli (DH5alpha, BL21 or JM109)
How it was run: (§1)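 Binding classes derive from A450 nm of bound biotin-tagged PL peptide. A score of 5 needs A450 above 4 in more than two repeats.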

[2] = molecular target: T2, PDZ protein (GST-PDZ fusion) (Homo sapiens, UniProt Q02410)
T2 construct: made in house; host or cells: E. coli (DH5alpha, BL21 or JM109)
T2 sequence (Q02410 1-837): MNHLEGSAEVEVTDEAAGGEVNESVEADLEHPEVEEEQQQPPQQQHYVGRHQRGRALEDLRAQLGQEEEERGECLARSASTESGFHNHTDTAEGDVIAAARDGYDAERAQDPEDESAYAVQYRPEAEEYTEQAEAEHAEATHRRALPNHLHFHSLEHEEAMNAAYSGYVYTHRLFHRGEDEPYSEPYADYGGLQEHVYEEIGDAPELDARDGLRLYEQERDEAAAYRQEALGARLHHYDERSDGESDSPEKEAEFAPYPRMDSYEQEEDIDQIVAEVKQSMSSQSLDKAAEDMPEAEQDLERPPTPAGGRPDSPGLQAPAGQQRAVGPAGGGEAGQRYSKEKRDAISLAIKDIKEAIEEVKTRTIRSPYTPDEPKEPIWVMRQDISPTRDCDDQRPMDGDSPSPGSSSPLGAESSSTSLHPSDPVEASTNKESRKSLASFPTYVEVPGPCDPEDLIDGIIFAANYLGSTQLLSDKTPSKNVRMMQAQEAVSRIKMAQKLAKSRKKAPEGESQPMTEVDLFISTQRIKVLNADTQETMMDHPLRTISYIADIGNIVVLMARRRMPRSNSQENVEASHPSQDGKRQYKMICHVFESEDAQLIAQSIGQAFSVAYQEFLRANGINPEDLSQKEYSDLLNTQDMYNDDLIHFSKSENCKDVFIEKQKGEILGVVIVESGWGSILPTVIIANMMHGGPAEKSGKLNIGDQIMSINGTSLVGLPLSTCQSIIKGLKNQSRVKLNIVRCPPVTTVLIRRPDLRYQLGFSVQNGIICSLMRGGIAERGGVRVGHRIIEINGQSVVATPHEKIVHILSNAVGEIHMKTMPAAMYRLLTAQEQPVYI
How it was run: as §1

[3] = molecular target: T3, PDZ protein (GST-PDZ fusion) (Homo sapiens, UniProt Q8NI35); details: PDZ INADL
T3 construct: made in house; host or cells: E. coli (DH5alpha, BL21 or JM109)
T3 sequence (Q8NI35 whole entry, the tested form may be a part): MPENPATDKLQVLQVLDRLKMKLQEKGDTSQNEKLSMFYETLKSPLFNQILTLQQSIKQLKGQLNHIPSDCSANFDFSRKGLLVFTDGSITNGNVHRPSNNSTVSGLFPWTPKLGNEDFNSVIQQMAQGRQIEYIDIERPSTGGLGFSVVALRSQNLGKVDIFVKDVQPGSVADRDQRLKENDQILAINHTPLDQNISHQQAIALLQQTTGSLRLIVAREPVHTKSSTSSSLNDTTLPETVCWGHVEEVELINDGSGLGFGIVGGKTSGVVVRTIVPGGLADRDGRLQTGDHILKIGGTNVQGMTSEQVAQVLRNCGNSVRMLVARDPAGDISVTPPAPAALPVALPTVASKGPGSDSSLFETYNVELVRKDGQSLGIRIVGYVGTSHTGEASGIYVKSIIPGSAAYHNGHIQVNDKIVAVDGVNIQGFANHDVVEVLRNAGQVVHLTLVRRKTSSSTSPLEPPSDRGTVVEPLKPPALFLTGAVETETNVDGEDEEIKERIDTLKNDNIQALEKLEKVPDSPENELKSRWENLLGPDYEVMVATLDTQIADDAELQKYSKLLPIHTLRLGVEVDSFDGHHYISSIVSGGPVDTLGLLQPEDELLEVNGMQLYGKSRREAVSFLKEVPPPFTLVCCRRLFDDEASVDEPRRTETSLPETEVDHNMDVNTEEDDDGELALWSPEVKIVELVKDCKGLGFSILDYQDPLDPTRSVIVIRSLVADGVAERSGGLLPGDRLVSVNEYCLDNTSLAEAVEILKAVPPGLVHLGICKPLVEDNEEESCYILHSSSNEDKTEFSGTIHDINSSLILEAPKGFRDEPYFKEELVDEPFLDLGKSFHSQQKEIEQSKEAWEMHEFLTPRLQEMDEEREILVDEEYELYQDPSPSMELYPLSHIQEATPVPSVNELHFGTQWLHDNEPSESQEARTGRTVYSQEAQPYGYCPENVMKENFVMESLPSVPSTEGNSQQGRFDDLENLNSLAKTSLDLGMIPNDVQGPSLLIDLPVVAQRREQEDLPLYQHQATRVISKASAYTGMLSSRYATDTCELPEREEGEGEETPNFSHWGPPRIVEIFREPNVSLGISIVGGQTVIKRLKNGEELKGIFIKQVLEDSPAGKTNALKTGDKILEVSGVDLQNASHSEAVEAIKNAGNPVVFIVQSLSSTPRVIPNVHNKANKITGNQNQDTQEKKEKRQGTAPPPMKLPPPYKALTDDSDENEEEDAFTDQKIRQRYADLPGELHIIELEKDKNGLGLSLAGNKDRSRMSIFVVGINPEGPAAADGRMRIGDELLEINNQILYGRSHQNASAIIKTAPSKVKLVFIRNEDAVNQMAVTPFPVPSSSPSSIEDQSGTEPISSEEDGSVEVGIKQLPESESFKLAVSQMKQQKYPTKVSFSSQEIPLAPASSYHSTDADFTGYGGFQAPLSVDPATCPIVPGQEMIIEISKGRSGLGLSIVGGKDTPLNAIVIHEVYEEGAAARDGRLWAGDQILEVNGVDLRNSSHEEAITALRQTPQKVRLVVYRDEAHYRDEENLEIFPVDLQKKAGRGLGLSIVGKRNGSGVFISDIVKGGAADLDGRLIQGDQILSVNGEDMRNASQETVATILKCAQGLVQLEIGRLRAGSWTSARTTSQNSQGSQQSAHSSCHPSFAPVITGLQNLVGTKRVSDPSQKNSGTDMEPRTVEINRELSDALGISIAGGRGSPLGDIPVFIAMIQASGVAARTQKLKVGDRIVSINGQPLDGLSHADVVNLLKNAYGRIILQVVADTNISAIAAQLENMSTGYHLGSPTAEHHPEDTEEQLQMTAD
How it was run: as §1

[4] = molecular target: T4, PDZ protein (GST-PDZ fusion) (Homo sapiens, UniProt Q86UL8)
T4 construct: made in house; host or cells: E. coli (DH5alpha, BL21 or JM109)
T4 sequence (Q86UL8 whole entry, the tested form may be a part): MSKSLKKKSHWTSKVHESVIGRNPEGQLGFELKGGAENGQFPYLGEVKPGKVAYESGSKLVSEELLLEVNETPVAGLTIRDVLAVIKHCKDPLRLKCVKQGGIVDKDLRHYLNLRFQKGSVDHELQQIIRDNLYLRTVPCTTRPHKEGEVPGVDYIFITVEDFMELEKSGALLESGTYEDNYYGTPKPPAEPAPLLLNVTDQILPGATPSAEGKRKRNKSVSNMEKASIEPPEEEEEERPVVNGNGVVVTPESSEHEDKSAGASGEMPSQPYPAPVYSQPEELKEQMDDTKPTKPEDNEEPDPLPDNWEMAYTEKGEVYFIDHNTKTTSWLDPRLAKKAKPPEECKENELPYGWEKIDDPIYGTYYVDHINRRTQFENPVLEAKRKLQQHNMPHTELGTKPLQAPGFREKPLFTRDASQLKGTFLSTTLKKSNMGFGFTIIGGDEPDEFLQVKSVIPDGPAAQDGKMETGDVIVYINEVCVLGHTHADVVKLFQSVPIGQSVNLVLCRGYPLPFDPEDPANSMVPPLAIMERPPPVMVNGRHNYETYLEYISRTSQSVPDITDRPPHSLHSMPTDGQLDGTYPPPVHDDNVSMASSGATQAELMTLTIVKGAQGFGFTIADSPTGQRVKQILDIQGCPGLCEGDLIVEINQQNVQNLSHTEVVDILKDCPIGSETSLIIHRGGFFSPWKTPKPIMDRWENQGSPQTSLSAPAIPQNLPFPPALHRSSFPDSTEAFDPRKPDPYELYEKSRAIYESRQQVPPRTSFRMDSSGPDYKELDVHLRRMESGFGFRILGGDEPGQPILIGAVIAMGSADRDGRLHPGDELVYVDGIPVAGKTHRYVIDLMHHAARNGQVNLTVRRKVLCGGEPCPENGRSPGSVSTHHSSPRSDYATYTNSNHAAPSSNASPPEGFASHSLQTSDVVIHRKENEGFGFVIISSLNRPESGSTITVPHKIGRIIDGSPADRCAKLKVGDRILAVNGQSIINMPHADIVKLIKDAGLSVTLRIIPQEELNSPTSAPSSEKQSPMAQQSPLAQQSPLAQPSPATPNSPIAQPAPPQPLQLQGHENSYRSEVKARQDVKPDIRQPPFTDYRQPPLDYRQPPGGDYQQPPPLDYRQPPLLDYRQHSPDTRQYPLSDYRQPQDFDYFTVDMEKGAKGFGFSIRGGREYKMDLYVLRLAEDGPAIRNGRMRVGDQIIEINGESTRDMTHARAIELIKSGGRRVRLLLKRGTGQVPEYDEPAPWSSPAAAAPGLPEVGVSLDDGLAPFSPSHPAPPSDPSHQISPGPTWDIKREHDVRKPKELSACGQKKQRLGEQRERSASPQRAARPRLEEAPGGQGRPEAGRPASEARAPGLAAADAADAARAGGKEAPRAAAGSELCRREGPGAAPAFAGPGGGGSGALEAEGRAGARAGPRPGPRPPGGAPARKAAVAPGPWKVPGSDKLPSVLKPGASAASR
How it was run: as §1

[5] = molecular target: T5, PDZ protein (GST-PDZ fusion) (Homo sapiens, UniProt Q13796); details: PDZ hAPXL, PDZ Domain 1
T5 construct: made in house; host or cells: E. coli (DH5alpha, BL21 or JM109)
T5 sequence (Q13796 whole entry, the tested form may be a part): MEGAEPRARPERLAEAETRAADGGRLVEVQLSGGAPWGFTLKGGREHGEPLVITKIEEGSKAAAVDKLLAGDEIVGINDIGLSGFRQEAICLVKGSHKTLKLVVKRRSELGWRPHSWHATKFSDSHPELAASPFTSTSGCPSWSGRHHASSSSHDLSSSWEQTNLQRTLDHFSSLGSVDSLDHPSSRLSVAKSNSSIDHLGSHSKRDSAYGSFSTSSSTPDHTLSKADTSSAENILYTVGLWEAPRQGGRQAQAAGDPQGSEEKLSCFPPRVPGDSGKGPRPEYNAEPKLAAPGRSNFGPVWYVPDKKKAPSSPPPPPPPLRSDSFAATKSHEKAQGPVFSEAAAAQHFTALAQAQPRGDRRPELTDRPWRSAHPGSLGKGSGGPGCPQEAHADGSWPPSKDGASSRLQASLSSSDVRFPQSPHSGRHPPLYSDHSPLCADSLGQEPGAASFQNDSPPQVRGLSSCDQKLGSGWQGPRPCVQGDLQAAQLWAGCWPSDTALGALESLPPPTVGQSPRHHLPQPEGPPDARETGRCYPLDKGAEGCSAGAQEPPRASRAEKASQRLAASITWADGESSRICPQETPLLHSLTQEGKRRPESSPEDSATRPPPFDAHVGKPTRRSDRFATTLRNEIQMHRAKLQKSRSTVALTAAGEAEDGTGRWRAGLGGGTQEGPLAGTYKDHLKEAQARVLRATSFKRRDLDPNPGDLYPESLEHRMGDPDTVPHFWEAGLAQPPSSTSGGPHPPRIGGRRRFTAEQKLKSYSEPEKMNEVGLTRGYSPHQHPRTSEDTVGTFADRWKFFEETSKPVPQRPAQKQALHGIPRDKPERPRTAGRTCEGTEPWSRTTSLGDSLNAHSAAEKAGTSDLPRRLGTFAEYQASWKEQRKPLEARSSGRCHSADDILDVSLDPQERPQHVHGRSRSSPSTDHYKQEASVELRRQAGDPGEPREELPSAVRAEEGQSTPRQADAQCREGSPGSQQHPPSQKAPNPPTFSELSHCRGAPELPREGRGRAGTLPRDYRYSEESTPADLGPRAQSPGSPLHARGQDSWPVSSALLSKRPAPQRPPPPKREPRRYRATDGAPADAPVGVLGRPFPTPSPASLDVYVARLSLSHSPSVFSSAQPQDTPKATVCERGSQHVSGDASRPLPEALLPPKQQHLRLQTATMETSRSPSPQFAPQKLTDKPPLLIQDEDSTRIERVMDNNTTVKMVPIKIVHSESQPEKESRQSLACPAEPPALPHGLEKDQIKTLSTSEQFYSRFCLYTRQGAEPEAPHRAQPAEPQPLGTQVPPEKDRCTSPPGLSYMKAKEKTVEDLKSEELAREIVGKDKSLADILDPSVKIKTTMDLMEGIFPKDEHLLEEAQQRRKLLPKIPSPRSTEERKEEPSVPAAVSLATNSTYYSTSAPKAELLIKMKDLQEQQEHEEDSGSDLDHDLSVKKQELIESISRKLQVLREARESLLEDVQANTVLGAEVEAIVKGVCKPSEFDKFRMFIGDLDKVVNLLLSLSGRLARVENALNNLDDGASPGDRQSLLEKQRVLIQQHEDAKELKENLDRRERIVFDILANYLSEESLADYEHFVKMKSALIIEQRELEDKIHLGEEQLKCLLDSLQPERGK
How it was run: as §1

[6] = PDZ Atrophin-1 Inter. Prot., PDZ Domain 5
[7] = PDZ atrophin-1 interacting Protein, PDZ Domain 3
[8] = PDZ atrophin-1 interacting Protein (Atrophin-1 Inter. Prot.), PDZ Domain 1

Row | Compound | Classification [1] | Classification ([2]; PDZ Mint 1, PDZ Domain 1, 2) | Classification ([2]; PDZ Mint 1, PDZ Domain 2) | Classification ([3]; PDZ Domain 8) | Classification ([3]; PDZ Domain 3) | Classification [4, 6] | Classification ([2]; PDZ Mint 1, PDZ Domain 1) | Classification [5] | further results
1 | LNETTETQRTLLNGDLQTSI (Biotin-LNETTETQRTLLNGDLQTSI) [SSTR2 (somatostatin recepor 2)] | 1 (A450 nm 0-1) | 1 (A450 nm 0-1) | 1 (A450 nm 0-1) |  |  |  |  |  | 
2 | CC[C@H](C)[C@H](NC(=O)[C@H](CCCCN)NC(=O)[C@@H](NC(=O)[C@H](CO)NC(=O)[C@@H]1CCCN1C(=O)[C@H](Cc1ccccc1)NC(=O)[C@@H](NC(=O)[C@@H](NC(=O)[C@H](CCCNC(=N)N)NC(=O)[C@H](CCC(=O)O)NC(=O)[C@H](CC(C)C)NC(=O)[C@H](CC(C)C)NC(=O)[C@H](CC(C)C)NC(=O)[C@@H](NC(=O)CNC(=O)[C@@H](NC(=O)CCCC[C@@H]1SC[C@@H]2NC(=O)N[C@@H]21)C(C)C)[C@@H](C)O)C(C)C)[C@@H](C)CC)C(C)C)C(=O)N[C@@H](C)C(=O)N[C@H](C(=O)N[C@@H](CC(C)C)C(=O)N[C@H](C(=O)O)C(C)C)[C@@H](C)O [Adenovirus E4 Type9] |  |  |  |  |  |  |  |  | Classification ([3]; PDZ Domain 8, PL peptide 10 uM): 2 (A450 nm 1-2); Classification ([4]; PDZ atrophin-1 interacting Protein, PDZ Domain 1, Protein Optimal Conc 0.5): 5 (A450 nm of 4 more than 2× repeated); Classification ([4]; PDZ atrophin-1 interacting Protein, PDZ Domain 3, Protein Optimal Conc 5): 4 (A450 nm 3-4); Classification ([1]; PL peptide 10 uM): 1 (A450 nm 0-1); Classification ([2]; PDZ Mint 1, PDZ Domain 1, 2, PL peptide 10 uM): 2 (A450 nm 1-2); Classification ([2]; PDZ Mint 1, PDZ Domain 2, PL peptide 10 uM): 2 (A450 nm 1-2)
3 | APC—adenomatous polyposis coli protein (ESSGTQSPKRHSGSYLVTSV) | 1 (A450 nm 0-1) |  |  | 2 (A450 nm 1-2) |  |  |  |  | 
4 | ELLQFCRTPNPALKNGQYWV (Biotin-ELLQFCRTPNPALKNGQYWV) |  | 5 (A450 nm of 4 more than 2× repeated) | 5 (A450 nm of 4 more than 2× repeated) | 3 (A450 nm 2-3) | 3 (A450 nm 2-3) | 2 (A450 nm 1-2) | 2 (A450 nm 1-2) | 3 (A450 nm 2-3) | Classification ([3]; PDZ Domain 5): 5 (A450 nm of 4 more than 2× repeated); Classification ([4]; PDZ atrophin-1 interacting Protein, PDZ Domain 1): 1 (A450 nm 0-1); Classification [4, 7]: 2 (A450 nm 1-2)
5 | A2AA_HUMAN (modified) (Biotin-HDFRRAFKKILARGDRKRIV; not fully specified) |  |  |  |  | 2 (A450 nm 1-2) | 1 (A450 nm 0-1) | 1 (A450 nm 0-1) | 1 (A450 nm 0-1) | Classification ([3]; PDZ Domain 4): 1 (A450 nm 0-1); Classification ([4]; PDZ Atrophin-1 Inter. Prot., PDZ Domain 6): 1 (A450 nm 0-1)
6 | CC(C)C[C@H](NC(=O)[C@H](C)NC(=O)[C@H](CO)NC(=O)CNC(=O)[C@@H](NC(=O)CCCC[C@@H]1SC[C@@H]2NC(=O)N[C@@H]21)[C@@H](C)O)C(=O)N[C@@H](CCC(N)=O)C(=O)N[C@@H](C)C(=O)N[C@@H](Cc1c[nH]c2ccccc12)C(=O)N[C@@H](CCCNC(=N)N)C(=O)N[C@@H](Cc1c[nH]cn1)C(=O)N[C@H](C(=O)N[C@@H](CO)C(=O)N[C@@H](CCCNC(=N)N)C(=O)N[C@@H](CCC(N)=O)C(=O)N[C@@H](C)C(=O)N[C@H](C(=O)N[C@@H](CCC(=O)O)C(=O)N[C@@H](CO)C(=O)N[C@H](C(=O)N[C@H](C(=O)O)C(C)C)[C@@H](C)O)[C@@H](C)O)[C@@H](C)O [HPV E6 #66 (modified)] (Biotin-TGSALQAWRHTSRQATESTV-OH; C-terminus assumed) |  | 1 (A450 nm 0-1) | 1 (A450 nm 0-1) | 1 (A450 nm 0-1) |  | 1 (A450 nm 0-1) |  | 1 (A450 nm 0-1) | Classification [4, 8]: 5 (A450 nm of 4 more than 2× repeated)
7 | KTMPAAMFRLLTGQETPLYI (Biotin-KTMPAAMFRLLTGQETPLYI) [MINT-2] | 1 (A450 nm 0-1) | 5 (A450 nm of 4 more than 2× repeated) | 1 (A450 nm 0-1) |  |  |  | 2 (A450 nm 1-2) |  | 
8 | CC[C@H](C)[C@H](NC(=O)[C@H](Cc1ccc(O)cc1)NC(=O)[C@@H](NC(=O)[C@@H]1CCCN1C(=O)[C@H](CCC(N)=O)NC(=O)[C@H](CCC(=O)O)NC(=O)[C@H](CCC(N)=O)NC(=O)[C@H](C)NC(=O)[C@@H](NC(=O)[C@H](CC(C)C)NC(=O)[C@H](CC(C)C)NC(=O)[C@H](CCCNC(=N)N)NC(=O)[C@H](Cc1ccc(O)cc1)NC(=O)[C@H](CCSC)NC(=O)[C@H](C)NC(=O)[C@H](C)NC(=O)[C@@H]1CCCN1C(=O)[C@H](CCSC)NC(=O)[C@@H](NC(=O)[C@H](CCCCN)NC(=O)CCCC[C@@H]1SC[C@@H]2NC(=O)N[C@@H]21)[C@@H](C)O)[C@@H](C)O)C(C)C)C(=O)O [MINT-1] (Biotin-KTMPAAMYRLLTAQEQPVYI-OH; C-terminus assumed) | 1 (A450 nm 0-1) | 5 (A450 nm of 4 more than 2× repeated) |  | 1 (A450 nm 0-1) |  |  | 3 (A450 nm 2-3) |  | 
9 | VHDAESSDEDGYDWGPATDL (Biotin-VHDAESSDEDGYDWGPATDL) [zona occludens 3 (ZO-3)] | 2 (A450 nm 1-2) |  | 2 (A450 nm 1-2) |  |  |  |  | 2 (A450 nm 1-2) | 
10 | CC(C)C[C@H](NC(=O)[C@H](CC(=O)O)NC(=O)[C@H](CO)NC(=O)[C@H](CCC(=O)O)NC(=O)CNC(=O)[C@H](Cc1ccc(O)cc1)NC(=O)[C@H](CC(C)C)NC(=O)[C@H](C)NC(=O)[C@H](CO)NC(=O)[C@H](CO)NC(=O)[C@H](Cc1ccccc1)NC(=O)[C@H](C)NC(=O)[C@H](C)NC(=O)[C@H](Cc1ccc(O)cc1)NC(=O)[C@H](CC(=O)O)NC(=O)[C@H](CC(C)C)NC(=O)[C@H](C)NC(=O)CNC(=O)[C@@H]1CCCN1C(=O)[C@@H](NC(=O)CCCC[C@@H]1SC[C@@H]2NC(=O)N[C@@H]21)C(C)C)C(=O)O [a-actinin 2] (Biotin-VPGALDYAAFSSALYGESDL-OH; C-terminus assumed) |  | 1 (A450 nm 0-1) | 1 (A450 nm 0-1) |  | 1 (A450 nm 0-1) | 5 (A450 nm of 4 more than 2× repeated) |  | 5 (A450 nm of 4 more than 2× repeated) | 
11 | CSCC[C@H](NC(=O)[C@H](C)NC(=O)[C@H](CCCNC(=N)N)NC(=O)CNC(=O)[C@@H](NC(=O)[C@H](Cc1c[nH]c2ccccc12)NC(=O)[C@H](CCCNC(=N)N)NC(=O)CNC(=O)CCCC[C@@H]1SC[C@@H]2NC(=O)N[C@@H]21)[C@@H](C)O)C(=O)N[C@@H](CO)C(=O)N[C@@H](C)C(=O)N[C@@H](Cc1c[nH]c2ccccc12)C(=O)N[C@@H](CCCCN)C(=O)N1CCC[C@H]1C(=O)N[C@H](C(=O)N[C@@H](CCCNC(=N)N)C(=O)N[C@@H](CCCNC(=N)N)C(=O)N[C@@H](CCC(=O)O)C(=O)N[C@H](C(=O)N[C@@H](CCC(=O)O)C(=O)N[C@H](C(=O)O)C(C)C)[C@@H](C)O)[C@@H](C)O [HPV E6 #35 (modified)] (Biotin-GRWTGRAMSAWKPTRRETEV-OH; C-terminus assumed) | 2 (A450 nm 1-2) | 1 (A450 nm 0-1) | 2 (A450 nm 1-2) | 4 (A450 nm 3-4) | 1 (A450 nm 0-1) | 4 (A450 nm 3-4) |  |  | Classification ([3]; PDZ Domain 5): 1 (A450 nm 0-1); Classification [4, 8]: 5 (A450 nm of 4 more than 2× repeated); Classification ([4]; PDZ atrophin-1 interacting Protein, PDZ Domain 2): 1 (A450 nm 0-1); Classification [4, 7]: 4 (A450 nm 3-4)
12 | QATSRNGHSARQHVVADTEL (Biotin-QATSRNGHSARQHVVADTEL) [CD34] | 1 (A450 nm 0-1) |  |  |  |  | 1 (A450 nm 0-1) |  |  | 
